In PubChem BioAssay (NCI):
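Method: 48-hour compound exposure of cells in 96-well plates, five concentrations, linear interpolation of endpoints. GI50 marks 50% less growth. TGI denotes the concentration required for complete inhibition of growth.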

Columns and labels:
Assay in all cases: NCI tumour cell line growth inhibition, 48 h
HOP-18 NSCLC = tested on: HOP-18 NSCLC
XF 498 CNS = tested on: XF 498 CNS
LXFL 529 NSCLC = tested on: LXFL 529 NSCLC
KM20L2 colon = tested on: KM20L2 colon
RXF-631 renal = tested on: RXF-631 renal
SNB-78 CNS = tested on: SNB-78 CNS
DLD-1 colon = tested on: DLD-1 colon
DMS 114 small cell lung = tested on: DMS 114 small cell lung
MDA-N = tested on: MDA-N
SN12K1 renal = tested on: SN12K1 renal
P388 leukemia = tested on: P388 leukemia
P388/ADR leukemia = tested on: P388/ADR leukemia

Compound | TGI (HOP-18 NSCLC) [µM] | TGI (XF 498 CNS) [µM] | TGI (LXFL 529 NSCLC) [µM] | TGI (KM20L2 colon) [µM] | TGI (RXF-631 renal) [µM] | TGI (SNB-78 CNS) [µM] | TGI (DLD-1 colon) [µM] | TGI (DMS 114 small cell lung) [µM] | other results
CS/C(C)=N/OC(=O)NCCCCNc1ccc(N=[N+]=[N-])cc1 | > 100 | 52 | > 100 | > 100 | 31.4 | > 100 | > 100 | 43.2 | 
COc1cccc2nc3cc(C)c(C)cc3nc12 | > 100 | > 100 | > 100 | > 100 | > 100 | > 100 | > 100 | > 100 | 
CCOC(=O)c1nc(-c2ccccc2)oc1OCC | > 100 | > 100 | > 100 | > 100 |  | > 100 | > 100 | > 100 | 
O=c1[nH]c(-c2ccc(-c3nc4cc([N+](=O)[O-])ccc4c(=O)[nH]3)cc2)nc2cc([N+](=O)[O-])ccc12 |  |  | > 100 | > 100 | > 100 | > 100 | > 100 | > 100 | 
O=C1CCC2(c3ccccc3)Nc3ncccc3N12 (stereo not drawn) |  | > 100 | > 100 | > 100 |  | > 100 | > 100 | > 100 | 
O=C(Nc1nc(=S)c2c(ncn2CCO)[nH]1)c1ccccc1 | > 100 | > 100 | > 100 | > 100 |  | > 100 | > 100 | > 100 | 
CC(=O)Nc1ccc(/C=C/C(=O)c2sc(-c3nc(C)c(C(=O)/C=C/c4ccc(NC(C)=O)cc4)s3)nc2C)cc1 |  | > 100 | > 100 | > 100 | > 100 | > 100 | > 100 | > 100 | 
CC12CC(OC(=O)[C@]1(C)O)[C@@H]([C@]1(O)CC[C@H]3[C@@H]4C[C@H]5O[C@]56[C@@H](O)C=CC(=O)[C@]6(C)[C@H]4CC[C@@]31C)C2 (stereo partly drawn) |  |  |  |  |  |  |  |  | TGI (MDA-N): 26.9 µM
O=C1NC2C=CN(Cc3ccccc3)C=C2C(=O)N2CCCC12 (stereo not drawn) | > 100 | > 100 | > 100 | > 100 | > 100 | > 100 | > 100 | > 100 | 
C=CC1C(OC2OC(CO)C(O)C(O)C2O)OC=C(C(=O)OC)C1CC=O (stereo not drawn) | > 100 |  | > 100 | > 100 | > 100 | > 100 | > 100 |  | 
COc1ccc(/C=C2\CCC(CN(C)C)C2=O)cc1OC (stereo not drawn) | 35.1 | 26.3 | 6.7 | 32.3 | 16.3 | 66.4 | 8.83 | 34.3 | 
COC(=O)C(F)C(Br)C(=O)OC (stereo not drawn) |  |  |  |  |  |  |  |  | TGI (MDA-N): 22.7 µM
C=CCNC(=O)NCCCC(NC(C)=O)C(=O)NCc1ccccc1 (stereo not drawn) | > 100 | > 100 | > 100 | > 100 | > 100 |  |  |  | 
OCC1OC(n2cnc3c(=S)nc[nH]c32)C(O)C1O (stereo not drawn) | > 2500 | > 1400 |  | > 2500 |  | > 2500 |  | 2490 | TGI (SN12K1 renal): > 2500 µM; TGI (MDA-N): > 2500 µM; TGI (P388 leukemia): > 2500 µM; TGI (P388/ADR leukemia): > 2500 µM
COC(=O)c1cc(-c2cccn2C)c2c(c1C(=O)OC)c1ccccc1n2C | > 100 | > 100 | > 100 |  | > 100 | > 100 | > 100 | > 100 | 
Nc1nc(N)c(N=O)c(OCC2CCCCC2)n1 |  |  |  |  |  |  |  |  | TGI (MDA-N): 67.4 µM
CS/C(=N\c1nccs1)NC(=O)c1cccc(Cl)c1 | > 100 |  | > 100 | > 100 | > 100 | > 100 | > 100 | > 100 | 
Clc1nc(Cl)c(-c2ccccc2)c(Cl)n1 |  |  |  |  |  |  |  |  | TGI (MDA-N): 6.67 µM

Compound | TGI (HOP-18 NSCLC) [µM] | TGI (XF 498 CNS) [µM] | TGI (LXFL 529 NSCLC) [µM] | TGI (KM20L2 colon) [µM] | TGI (RXF-631 renal) [µM] | TGI (SNB-78 CNS) [µM] | TGI (DLD-1 colon) [µM] | TGI (DMS 114 small cell lung) [µM] | other results
CN(C)c1ccc(C(=C2C=CC(=[N+](C)C)C=C2)c2ccc(N(C)C)cc2)cc1 |  | 0.193 | 1.03 | 0.938 |  | 5.67 | 1.74 |  | 
Cc1ccc(Sc2ccc(C)cc2[N+](=O)[O-])c([N+](=O)[O-])c1 | > 100 | > 100 | > 100 | > 100 |  | > 100 |  | > 100 | 
COc1cc(C)c(O)c(C(=O)O)c1 | > 100 | > 100 | > 100 | > 100 |  | > 100 | > 100 | > 100 | 
CCC(/C=C/c1ccccc1)=N\Nc1ccc(Cl)c(Cl)c1 |  |  |  |  |  |  |  |  | TGI (MDA-N): > 100 µM
N.N.NCCCCCCN.O=C([O-])CC(=O)[O-].O=C([O-])CC(=O)[O-].[Pt+4].[Pt+4] | > 100 |  | > 100 | > 100 |  | > 100 | > 100 |  | GI50 (HOP-18 NSCLC): > 100 µM; GI50 (LXFL 529 NSCLC): > 100 µM; GI50 (KM20L2 colon): > 100 µM; GI50 (SNB-78 CNS): > 100 µM; GI50 (DLD-1 colon): > 100 µM
O=C(CCc1cc(-c2ccccc2)nc(=S)[nH]1)Nc1ccccc1[N+](=O)[O-] | > 100 | 91.5 | > 100 | > 100 | > 100 | > 100 |  | > 100 | 
c1ccc(CSc2nnc3c4ccccc4c4ccccc4c3n2)cc1 |  |  |  |  |  |  |  |  | TGI (MDA-N): > 100 µM
O=c1cc(N=Nc2ccc(O)cc2)[nH]c(=O)[nH]1 |  |  |  |  |  |  |  |  | TGI (MDA-N): > 100 µM
C=C1CCC2[C@@H](CCC3[C@]2(C)CCC[C@]3(C)C(=O)OC)C1CCO (stereo partly drawn) | 29.9 | 22.6 | 21 | 22.8 |  | 36.3 | 46.8 | 20.3 | 
C=CCC(OCCOCC)c1cc(OCCOCC)ccc1OC (stereo not drawn) |  | > 100 | > 100 |  |  | > 100 |  |  | 
COC(=O)C1=C(C(=O)OC)SC(=C(N=Nc2ccccc2)c2ccccc2)S1 | > 100 |  | > 100 | > 100 | > 100 | > 100 | > 100 |  | 
CCN(CC)CC(C(=O)Nc1c(C)cccc1C)/C(C)=N\NC(=O)c1ccncc1 (stereo not drawn) | > 100 | > 100 | > 100 |  | > 100 | > 100 | > 100 | > 100 | 
C/C=C/C=C/CCCCCCCCCCCCCC1(OC)C=CC(CC(=O)OC)OO1 (stereo not drawn) |  | 15.8 | 16.7 | 3.51 | 29.1 |  | 23.8 |  | GI50 (XF 498 CNS): 6.59 µM; GI50 (LXFL 529 NSCLC): 4.7 µM; GI50 (KM20L2 colon): 1.89 µM; GI50 (RXF-631 renal): 10.8 µM; GI50 (DLD-1 colon): 5.79 µM
C=C1CCc2occ(C)c2C2C1C1=C(CC(C)C1=O)C1OC12C (stereo not drawn) | 6.77 | > 100 | > 100 | > 100 |  | > 100 | > 100 | > 100 | 
COC(=O)C1=C(O)c2cc3c(cc2[C@H](c2cc(OC)c(OC)c(OC)c2)C1C(=O)OC)OCO3 (stereo partly drawn) | 89.4 | 70 | > 100 | > 100 | > 100 | > 100 | > 100 | 68.8 | 
CCCC(Sc1ccccc1)P(=O)(c1ccccc1)c1ccccc1 (stereo not drawn) |  |  |  | > 100 | 94.7 | > 100 | > 100 | > 100 | 
C[C@@H](NC1CCC[C@H]1O)c1ccccc1 (stereo partly drawn) | > 100 | > 100 | > 100 | > 100 |  | > 100 | > 100 | > 100 | 
O=C1c2ccccc2CC1C1(O)C(=O)Nc2ccccc21 (stereo not drawn) |  | > 100 | > 100 | > 100 | > 100 | > 100 | > 100 | > 100 | 
